Legend:
[1] = fAUC/MIC in Mycobacterium tuberculosis infected mouse; type: functional
[2] = fCmax/MIC in Mycobacterium tuberculosis infected mouse; type: functional
[3] = fT>MIC in Mycobacterium tuberculosis infected mouse; type: functional
[4] = AUC/MIC in Mycobacterium tuberculosis infected mouse; type: functional, Plasma
[5] = T>MIC in Mycobacterium tuberculosis infected mouse; type: functional
[6] = Cmax/MIC in Mycobacterium tuberculosis infected mouse; type: functional

Structure (SMILES)	fAUC/MIC [1]	fCmax/MIC [2]	fT>MIC [3] [%]	RatioAUC/MIC [4]	%T>MIC [5] [%]	Ratio [6]
NC(=O)c1cnccn1 [PYRAZINAMIDE]	21	15	19	35	25	25
OC(c1cc(C(F)(F)F)nc2c(C(F)(F)F)cccc12)C1CCCCN1 (centres undefined) [MEFLOQUINE]	1.6	0.1	0	8	0	0.5
CC[C@@H](CO)NCCN[C@@H](CC)CO [ETHAMBUTOL]	25	8	25	33	35	11
O=[N+]([O-])c1cn2c(n1)OC[C@@H](OCc1ccc(OC(F)(F)F)cc1)C2 [PRETOMANID]	16	2	21	166	58	20
CO[C@H]1/C=C/O[C@@]2(C)Oc3c(C)c(O)c4c(O)c(c(/C=N/N5CCN(C)CC5)c(O)c4c3C2=O)NC(=O)/C(C)=C\C=C\[C@H](C)[C@H](O)[C@@H](C)[C@@H](O)[C@@H](C)[C@H](OC(C)=O)[C@@H]1C [RIFAMPIN]	300	20	100	1500	100	100
COc1nc2ccc(Br)cc2cc1[C@@H](c1ccccc1)[C@@](O)(CCN(C)C)c1cccc2ccccc12 [BEDAQUILINE]	1	0.1	0	100	80	10
CC(C)/N=c1\cc2n(-c3ccc(Cl)cc3)c3ccccc3nc-2cc1Nc1ccc(Cl)cc1 [CLOFAZIMINE]	<1	0.02	0	20	0	1
NNC(=O)c1ccncc1 [ISONIAZID]	800	400	60	1300	80	660
COc1c(N2C[C@@H]3CCCN[C@@H]3C2)c(F)cc2c(=O)c(C(=O)O)cn(C3CC3)c12 [MOXIFLOXACIN]	53	10	80	88	100	17

Reference: ChEMBL document CHEMBL2412982, “A medicinal chemists' guide to the unique difficulties of lead optimization for tuberculosis” (2013)
